# ChEMBL document CHEMBL1124074, “Bile acids with a cyclopropyl-containing side chain. 3. Separation, identification, and properties of all four stereoisomers of 3 alpha,7 beta-dihydroxy-22,23-methylene-5 beta-cholan-24-oic acid” (J Med Chem, 1988)
# Experiments:
# [1] = Critical micellar concentration was measured in water by the dye solubilization method; format: ADME; details: buffer
# [2] = pKa value was evaluated; format: physicochemical
SMILES,CMC [1],pKa [2]
C[C@H]([C@H]1C[C@H]1C(=O)O)[C@H]1CC[C@H]2[C@@H]3[C@@H](O)CC4C[C@H](O)CC[C@]4(C)[C@H]3CC[C@]12C (some centres undefined),10 mM,5.04
CC(C1CC[C@H]2[C@@H]3[C@@H](O)CC4C[C@H](O)CCC4(C)[C@H]3CCC12C)[C@H]1C[C@H]1C(=O)O (some centres undefined),20 mM,5.05
C[C@H]([C@@H]1C[C@@H]1C(=O)O)[C@H]1CC[C@H]2[C@@H]3[C@@H](O)CC4C[C@H](O)CC[C@]4(C)[C@H]3CC[C@]12C (some centres undefined),14 mM,5.02
C[C@H](CCC(=O)O)[C@H]1CC[C@H]2[C@@H]3[C@@H](O)C[C@@H]4C[C@H](O)CC[C@]4(C)[C@H]3CC[C@]12C [URSODIOL],19 mM,
CC(C1CC[C@H]2[C@@H]3[C@@H](O)CC4C[C@H](O)CCC4(C)[C@H]3CCC12C)[C@@H]1C[C@@H]1C(=O)O (some centres undefined),25 mM,5.04
